Values of other authors in PubChem BioAssay AID1259409 (Chemical Carcinogenesis Research Information System (CCRIS), 2018).

System: rodent chemically induced tumor inhibition, incidence and multiplicity
Assay: CCRIS tumor inhibitor studies
Details: Route [Inhibitor]: ORAL, Promoter: NONE USED; for outcome: Target Tissue: Type of Lesion: GALLBLADDER: CARCINOMA IN SITU

O=[Se](O)O
tumour outcome (control, treated, inhibition, significance) (Carcinogen: 1,2-DIMETHYLHYDRAZINE, 540-73-8, Dose [Inhibitor]: 0, 10 MG/L IN DRINKING WATER FOR DURATION OF STUDY BEGINNING 7 D PRIOR TO CARCINOGEN TREATMENT (STUDY DURATION: 8 MO), Species: RAT, Strain/Sex: BD6/MALE, Target Tissue: Type of Lesion: INTESTINE: TUMOR, Dose [Carcinogen]: 20 MG/KG BW 1/WK FOR 20 WK): 100%, 100%, 0%, not significant
tumour outcome (control, treated, inhibition, significance) (Carcinogen: 1,2-DIMETHYLHYDRAZINE, 540-73-8, Dose [Inhibitor]: 4 PPM IN DRINKING WATER DAILY FOR 10-20 WK STARTING AFTER COMPLETION OF CARCINOGEN TREATMENT AND CONTINUING FOR DURATION, Species: RAT, Strain/Sex: SPRAGUE-DAWLEY/MALE, Target Tissue: Type of Lesion: COLON: ADENOCARCINOMA, VILLOUS ADENOMA, Dose [Carcinogen]: 20 MG/KG BW 1/WK FOR 20 WK): 29/32 (91%), 63/69 (91%), 0%, not calculated
tumour outcome (control, treated, inhibition, significance) (Carcinogen: 1,2-DIMETHYLHYDRAZINE, 540-73-8, Dose [Inhibitor]: 4 PPM IN DRINKING WATER DAILY FOR 20 WK STARTING SIMULTANEOUSLY WITH CARCINOGEN TREATMENT AND CONTINUING THROUGH END OF, Species: RAT, Strain/Sex: SPRAGUE-DAWLEY/MALE, Target Tissue: Type of Lesion: COLON: ADENOCARCINOMA, Dose [Carcinogen]: 20 MG/KG BW 1/WK FOR 20 WK): 13/15 (87%), 6/15 (40%), 54%, p 0.025
tumour outcome (control, treated, inhibition, significance) (Carcinogen: 1,2-DIMETHYLHYDRAZINE, 540-73-8, Dose [Inhibitor]: 4 PPM IN DRINKING WATER DAILY STARTING 2 WK PRIOR TO START OF CARCINOGEN TREATMENT AND CONTINUING FOR DURATION OF STUDY, Species: RAT, Strain/Sex: SPRAGUE-DAWLEY/MALE, Target Tissue: Type of Lesion: COLON: ADENOCARCINOMA, Dose [Carcinogen]: 20 MG/KG BW IN BACTERIOSTATIC SALINE 1/WK FOR 20 WK): 9/14 (64%), 4/13 (31%), 52%, not calculated
tumour outcome (control, treated, inhibition, significance) (Carcinogen: 2-(ACETYLAMINO)FLUORENE, 6292-55-3, Dose [Inhibitor]: 4 PPM IN DRINKING WATER DAILY STARTING 1 WK PRIOR TO CARCINOGEN TREATMENT AND CONTINUING FOR DURATION OF STUDY (STUDY DU, Species: RAT, Strain/Sex: SPRAGUE-DAWLEY/MALE, Target Tissue: Type of Lesion: LIVER: CARCINOMA, Dose [Carcinogen]: 0.03% IN DIET DAILY FOR 14 WK): 9/13 (69%), 4/14 (29%), 58%, not calculated
tumour outcome (control, treated, inhibition, significance) (Carcinogen: 3'-METHYL-4-DIMETHYLAMINOAZOBENZENE, 55-80-1, Dose [Inhibitor]: 6 PPM IN DRINKING WATER DAILY STARTING 1 WK PRIOR TO START OF CARCINOGEN TREATMENT AND CONTINUING FOR DURATION OF STUDY, Species: RAT, Strain/Sex: SPRAGUE-DAWLEY/MALE, Target Tissue: Type of Lesion: LIVER: ADENOCARCINOMA, Dose [Carcinogen]: 0.05% IN DIET DAILY FOR 8 WK): 11/12 (92%), 7/15 (46%), 50%, p<0.01
outcome (Carcinogen: 3-METHYLCHOLANTHRENE, 56-49-5, Dose [Inhibitor]: 0, 0.5 PPM IN DRINKING WATER FOR 24 WK BEGINNING 4 WK PRIOR TO CARCINOGEN TREATMENT (STUDY DURATION: 24 WK), Species: HAMSTER, Strain/Sex: SYRIAN/FEMALE, Dose [Carcinogen]: 3 MG IN BEESWAX PELLET INSERTED INTO GALLBLADDER AT WK 4 OF STUDY): 0/24 (0%), 3/20 (15%), -100%, not significant
tumour outcome (control, treated, inhibition, significance) (Carcinogen: 3-METHYLCHOLANTHRENE, 56-49-5, Dose [Inhibitor]: 0, 0.5 PPM IN DRINKING WATER FOR 24 WK BEGINNING 4 WK PRIOR TO CARCINOGEN TREATMENT (STUDY DURATION: 24 WK), Species: HAMSTER, Strain/Sex: SYRIAN/FEMALE, Target Tissue: Type of Lesion: GALLBLADDER: INVASIVE ADENOCARCINOMA, Dose [Carcinogen]: 3 MG IN BEESWAX PELLET INSERTED INTO GALLBLADDER AT WK 4 OF STUDY): 21/24 (88%), 11/20 (55%), 38%, p<0.05
outcome (Carcinogen: 3-METHYLCHOLANTHRENE, 56-49-5, Dose [Inhibitor]: 0, 2 PPM IN DRINKING WATER FOR 24 WK BEGINNING 4 WK PRIOR TO CARCINOGEN TREATMENT (STUDY DURATION: 24 WK), Species: HAMSTER, Strain/Sex: SYRIAN/FEMALE, Dose [Carcinogen]: 3 MG IN BEESWAX PELLET INSERTED INTO GALLBLADDER AT WK 4 OF STUDY): 0/24 (0%), 7/21 (33%), -100%, p<0.05
tumour outcome (control, treated, inhibition, significance) (Carcinogen: 3-METHYLCHOLANTHRENE, 56-49-5, Dose [Inhibitor]: 0, 2 PPM IN DRINKING WATER FOR 24 WK BEGINNING 4 WK PRIOR TO CARCINOGEN TREATMENT (STUDY DURATION: 24 WK), Species: HAMSTER, Strain/Sex: SYRIAN/FEMALE, Target Tissue: Type of Lesion: GALLBLADDER: INVASIVE ADENOCARCINOMA, Dose [Carcinogen]: 3 MG IN BEESWAX PELLET INSERTED INTO GALLBLADDER AT WK 4 OF STUDY): 21/24 (88%), 10/21 (48%), 45%, p<0.05
tumour outcome (control, treated, inhibition, significance) (Carcinogen: 3-METHYLCHOLANTHRENE, 56-49-5, Dose [Inhibitor]: 0, 2 UG/G/BW 2/WK FOR 20 WK (STUDY DURATION: 20 WK), Species: MOUSE, Strain/Sex: ICRC/MALE, Target Tissue: Type of Lesion: SKIN: PAPILLOMA, Dose [Carcinogen]: 50 UG IN 0.2 ML ACETONE 2/WK): 100%, 100%, 0%, not significant
outcome (Carcinogen: 3-METHYLCHOLANTHRENE, 56-49-5, Dose [Inhibitor]: 0, 4 PPM IN DRINKING WATER FOR 24 WK BEGINNING 4 WK PRIOR TO CARCINOGEN TREATMENT (STUDY DURATION: 24 WK), Species: HAMSTER, Strain/Sex: SYRIAN/FEMALE, Dose [Carcinogen]: 3 MG IN BEESWAX PELLET INSERTED INTO GALLBLADDER AT WK 4 OF STUDY): 0/24 (0%), 5/22 (23%), -100%, p<0.05
tumour outcome (control, treated, inhibition, significance) (Carcinogen: 3-METHYLCHOLANTHRENE, 56-49-5, Dose [Inhibitor]: 0, 4 PPM IN DRINKING WATER FOR 24 WK BEGINNING 4 WK PRIOR TO CARCINOGEN TREATMENT (STUDY DURATION: 24 WK), Species: HAMSTER, Strain/Sex: SYRIAN/FEMALE, Target Tissue: Type of Lesion: GALLBLADDER: INVASIVE ADENOCARCINOMA, Dose [Carcinogen]: 3 MG IN BEESWAX PELLET INSERTED INTO GALLBLADDER AT WK 4 OF STUDY): 21/24 (88%), 12/22 (55%), 38%, p<0.05
tumour outcome (control, treated, inhibition, significance) (Carcinogen: 4-(METHYLNITROSAMINO)-1-(3-PYRIDYL)-1-BUTANONE, 64091-91-4, Dose [Inhibitor]: 0, 0.0022 G/KG DIET (0.00008 UMOL/D) BEGINNING 2 WK PRIOR TO CARCINOGEN DOSE AND CONTINUING FOR DURATION OF STUDY (STUDY, Species: MOUSE, Strain/Sex: STRAIN-A/FEMALE, Target Tissue: Type of Lesion: LUNG: ADENOMA, Dose [Carcinogen]: 9.2, 9.1 MG/MOUSE IN DRINKING WATER DURING 7 WK): 28/28 (100%), 24/25 (96%), 4%, not significant
tumour outcome (control, treated, inhibition, significance) (Carcinogen: 4-(METHYLNITROSAMINO)-1-(3-PYRIDYL)-1-BUTANONE, 64091-91-4, Dose [Inhibitor]: 0, 5 PPM IN DIET BEGINNING 1 WK PRIOR TO CARCINOGEN TREATMENT AND CONTINUING FOR 16 WK POST CARCINOGEN TREATMENT (STUDY, Species: MOUSE, Strain/Sex: STRAIN-A/FEMALE, Target Tissue: Type of Lesion: LUNG: ADENOMA, Dose [Carcinogen]: 10 UMOL IN 0.1 ML SALINE): 100%, 100%, 0%, not significant
